In patent US20230203098A1, “HUMAN TRANSFERRIN RECEPTOR BINDING PEPTIDE” (priority 2020, published 2023):
Read-outs that look alike come from different tables or passages of the source. Where a SMILES comes first, the peptide text is derived from it. Bridges are numbered along the chain shown (N, C = ends). [ ]: non-standard residue; d: D form. Trp(1-CH2COOH) = N[C@@H](Cc1cn(CC(=O)O)c2ccccc12)C(=O)O; NMePhe(3-Cl) = CN[C@@H](Cc1cccc(Cl)c1)C(=O)O; NMeW = CN[C@@H](Cc1c[nH]c2ccccc12)C(=O)O; NMeY = CN[C@@H](Cc1ccc(O)cc1)C(=O)O; Aad = N[C@@H](CCCC(=O)O)C(=O)O; hLys = NCCCCC[C@H](N)C(=O)O; Orn = NCCC[C@H](N)C(=O)O

Target: transferrin receptor (hTfR) (Homo sapiens, UniProt P02786)
Assay: Intermolecular interaction evaluation test between transferrin receptor (hTfR) and peptide by surface plasmon resonance (SPR)
Assay type: binding
Conditions: surface plasmon resonance, read-out: KD value for hTfR by SPR (class symbol)
Procedure, shortened: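 Receptor was Ni-captured and EDC/NHS-fixed on an NTA chip; running buffer HEPES pH 8.0 with NaCl, Tween 20, BSA and 1.0% DMSO.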

transferrin receptor (hTfR), sequence (P02786 whole entry): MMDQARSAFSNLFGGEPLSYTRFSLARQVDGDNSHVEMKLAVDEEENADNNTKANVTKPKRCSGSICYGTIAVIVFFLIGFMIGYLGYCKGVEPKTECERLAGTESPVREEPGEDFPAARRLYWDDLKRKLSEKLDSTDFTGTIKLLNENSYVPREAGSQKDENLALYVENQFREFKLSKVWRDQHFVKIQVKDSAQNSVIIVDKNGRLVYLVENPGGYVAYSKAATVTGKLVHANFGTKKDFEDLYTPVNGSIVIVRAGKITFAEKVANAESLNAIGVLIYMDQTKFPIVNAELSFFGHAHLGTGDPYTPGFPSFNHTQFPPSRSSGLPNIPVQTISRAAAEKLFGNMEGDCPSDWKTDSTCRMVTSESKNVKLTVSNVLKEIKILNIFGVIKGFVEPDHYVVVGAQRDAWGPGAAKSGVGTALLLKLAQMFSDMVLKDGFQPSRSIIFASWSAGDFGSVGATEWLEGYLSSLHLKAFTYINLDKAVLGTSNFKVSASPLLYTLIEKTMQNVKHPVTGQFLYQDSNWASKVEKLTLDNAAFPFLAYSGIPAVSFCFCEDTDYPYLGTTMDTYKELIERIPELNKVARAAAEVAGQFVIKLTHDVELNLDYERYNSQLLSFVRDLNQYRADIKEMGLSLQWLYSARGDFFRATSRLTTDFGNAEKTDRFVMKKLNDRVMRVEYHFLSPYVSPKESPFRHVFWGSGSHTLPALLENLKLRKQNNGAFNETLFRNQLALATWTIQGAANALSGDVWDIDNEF

Compound: CC[C@H](C)[C@@H]1NC(=O)[C@H](Cc2ccc(O)cc2)NC(=O)[C@H](Cc2ccc(O)cc2)NC(=O)[C@H](CC(N)=O)NC(=O)[C@H](Cc2c[nH]c3ccccc23)N(C)C(=O)[C@H](C(C)C)NC(=O)[C@H](Cc2cccc(Cl)c2)N(C)C(=O)[C@@H]2CCCC(=O)NCCCC[C@H](NC(=O)[C@H]([C@@H](C)CC)NC1=O)C(=O)N[C@@H](CCCNC(=N)N)C(=O)N[C@@H](Cc1ccc(O)cc1)C(=O)N(C)[C@@H](Cc1ccc(O)cc1)C(=O)N[C@H](C(N)=O)CSCC(=O)N[C@@H](C)C(=O)N2 [compound 409]
- Kd (hTfR): 1 to 100 nM

Compound: CC[C@H](C)[C@@H]1NC(=O)[C@H](Cc2ccc(O)cc2)NC(=O)[C@H](Cc2ccc(O)cc2)NC(=O)[C@H](CC(N)=O)NC(=O)[C@H](Cc2c[nH]c3ccccc23)N(C)C(=O)[C@H](C(C)C)NC(=O)[C@H](Cc2cccc(Cl)c2)N(C)C(=O)[C@@H]2CCCC(=O)NCCCCC[C@H](NC(=O)[C@H]([C@@H](C)CC)NC1=O)C(=O)N[C@@H](CCCNC(=N)N)C(=O)N[C@@H](Cc1ccc(O)cc1)C(=O)N(C)[C@@H](Cc1ccc(O)cc1)C(=O)N[C@H](C(N)=O)CSCC(=O)N[C@@H](C)C(=O)N2 [compound 410]
- Kd (hTfR): 1 to 100 nM

Compound: CC[C@H](C)[C@@H]1NC(=O)[C@H](Cc2ccc(O)cc2)NC(=O)[C@H](Cc2ccc(O)cc2)NC(=O)[C@H](CC(N)=O)NC(=O)[C@H](Cc2c[nH]c3ccccc23)N(C)C(=O)[C@H](C(C)C)NC(=O)[C@H](Cc2cccc(Cl)c2)N(C)C(=O)[C@@H]2CCC(=O)NCCCCC[C@H](NC(=O)[C@H]([C@@H](C)CC)NC1=O)C(=O)N[C@@H](CCCNC(=N)N)C(=O)N[C@@H](Cc1ccc(O)cc1)C(=O)N(C)[C@@H](Cc1ccc(O)cc1)C(=O)N[C@H](C(N)=O)CSCC(=O)N[C@@H](C)C(=O)N2 [compound 411]
- Kd (peptide vs hTfR): 1 to 100 nM

Compound: CC[C@H](C)[C@@H]1NC(=O)[C@H](Cc2ccc(O)cc2)NC(=O)[C@H](Cc2ccc(O)cc2)NC(=O)[C@H](CC(N)=O)NC(=O)[C@H](Cc2c[nH]c3ccccc23)N(C)C(=O)[C@H](C(C)C)NC(=O)[C@H](Cc2cccc(Cl)c2)N(C)C(=O)[C@@H]2CCC(=O)NCCCC[C@H](NC(=O)[C@H]([C@@H](C)CC)NC1=O)C(=O)N[C@@H](CCCNC(=N)N)C(=O)N[C@@H](Cc1ccc(O)cc1)C(=O)N(C)[C@@H](Cc1ccc(O)cc1)C(=O)N[C@H](C(N)=O)CSCC(=O)N[C@@H](C)C(=O)N2 [compound 412]
- Kd (peptide vs hTfR): 1 to 100 nM

Compound: CC[C@H](C)[C@@H]1NC(=O)[C@@H]2CCCCNC(=O)[C@H]3CCCN3C(=O)CC[C@H](NC(=O)[C@H](C(C)C)NC(=O)[C@H](C)NC(=O)CSC[C@@H](C(N)=O)NC(=O)[C@H](Cc3ccc(O)cc3)N(C)C(=O)[C@H](Cc3ccc(O)cc3)NC(=O)[C@H](CCCNC(=N)N)NC(=O)[C@H](CCCNC(=N)N)NC(=O)[C@H]([C@@H](C)CC)NC1=O)C(=O)N[C@@H](C(C)C)C(=O)N(C)[C@@H](Cc1c[nH]c3ccccc13)C(=O)N[C@@H](CC(N)=O)C(=O)N[C@@H](Cc1ccc(O)cc1)C(=O)N2 [compound 413] ({CH2CO}-AVEV[NMeW]NYKIIRRY[NMeY]C-NH2; linker 3-8 via dP; thioether N-15)
- Kd (peptide vs hTfR): 100 to 1000 nM

Compound: CC[C@H](C)[C@@H]1NC(=O)[C@@H]2CCCCNC(=O)[C@H]3CCCN3C(=O)C[C@H](NC(=O)[C@H](C(C)C)NC(=O)[C@H](C)NC(=O)CSC[C@@H](C(N)=O)NC(=O)[C@H](Cc3ccc(O)cc3)N(C)C(=O)[C@H](Cc3ccc(O)cc3)NC(=O)[C@H](CCCNC(=N)N)NC(=O)[C@H](CCCNC(=N)N)NC(=O)[C@H]([C@@H](C)CC)NC1=O)C(=O)N[C@@H](C(C)C)C(=O)N(C)[C@@H](Cc1c[nH]c3ccccc13)C(=O)N[C@@H](CC(N)=O)C(=O)N[C@@H](Cc1ccc(O)cc1)C(=O)N2 [compound 414] ({CH2CO}-AVDV[NMeW]NYKIIRRY[NMeY]C-NH2; linker 3-8 via dP; thioether N-15)
- Kd (peptide vs hTfR): 1 to 100 nM

Compound: CC[C@H](C)[C@@H]1NC(=O)[C@@H]2CCCNC(=O)CC[C@H](NC(=O)[C@H](C(C)C)NC(=O)[C@H](C)NC(=O)CSC[C@@H](C(N)=O)NC(=O)[C@H](Cc3ccc(O)cc3)N(C)C(=O)[C@H](Cc3ccc(O)cc3)NC(=O)[C@H](CCCNC(=N)N)NC(=O)[C@H](CCCNC(=N)N)NC(=O)[C@H]([C@@H](C)CC)NC1=O)C(=O)N[C@@H](C(C)C)C(=O)N(C)[C@@H](Cc1c[nH]c3ccccc13)C(=O)N[C@@H](CC(N)=O)C(=O)N[C@@H](Cc1ccc(O)cc1)C(=O)N2 [compound 415] ({CH2CO}-AVEV[NMeW]NY[Orn]IIRRY[NMeY]C-NH2; lactam 3-8 (inferred); thioether N-15 (inferred))
- Kd (peptide vs hTfR): 100 to 1000 nM

Compound: CC[C@H](C)[C@@H]1NC(=O)[C@H](Cc2ccc(O)cc2)NC(=O)[C@H](Cc2ccc(O)cc2)NC(=O)[C@H](CC(N)=O)NC(=O)[C@H](Cc2c[nH]c3ccccc23)N(C)C(=O)[C@H](C(C)C)NC(=O)[C@H](Cc2cccc(Cl)c2)N(C)C(=O)[C@@H]2CCC(=O)N3CCC[C@@H]3C(=O)NCCCC[C@H](NC(=O)[C@H]([C@@H](C)CC)NC1=O)C(=O)N[C@@H](CCCNC(=N)N)C(=O)N[C@@H](Cc1ccc(O)cc1)C(=O)N(C)[C@@H](Cc1ccc(O)cc1)C(=O)N[C@H](C(N)=O)CSCC(=O)N[C@@H](C)C(=O)N2 [compound 416]
- Kd (peptide vs hTfR): 1 to 100 nM

Compound: CC[C@H](C)[C@@H]1NC(=O)[C@H](Cc2ccc(O)cc2)NC(=O)[C@H](Cc2ccc(O)cc2)NC(=O)[C@H](CC(N)=O)NC(=O)[C@H](Cc2c[nH]c3ccccc23)N(C)C(=O)[C@H](C(C)C)NC(=O)[C@H](Cc2cccc(Cl)c2)N(C)C(=O)[C@@H]2CCC(=O)NCC(=O)NCCCC[C@H](NC(=O)[C@H]([C@@H](C)CC)NC1=O)C(=O)N[C@@H](CCCNC(=N)N)C(=O)N[C@@H](Cc1ccc(O)cc1)C(=O)N(C)[C@@H](Cc1ccc(O)cc1)C(=O)N[C@H](C(N)=O)CSCC(=O)N[C@@H](C)C(=O)N2 [compound 417]
- Kd (peptide vs hTfR): 1 to 100 nM

Compound: CC[C@H](C)[C@@H]1NC(=O)[C@H](Cc2ccc(OC)cc2)NC(=O)[C@H](Cc2ccc(O)cc2)NC(=O)[C@H](CC(N)=O)NC(=O)[C@H](Cc2c[nH]c3ccccc23)N(C)C(=O)[C@H](C(C)C)NC(=O)[C@H](Cc2cccc(Cl)c2)N(C)C(=O)[C@@H]2CCCC(=O)NCCCCC[C@H](NC(=O)[C@H]([C@@H](C)CC)NC1=O)C(=O)N[C@H](CCCNC(=N)N)C(=O)N[C@@H](Cc1ccccc1)C(=O)N(C)[C@@H](Cc1ccc(O)cc1)C(=O)N[C@H](C(N)=O)CSCC(=O)N[C@@H](C)C(=O)N2 [compound 418] ({CH2CO}-A[Aad][NMePhe(3-Cl)]V[NMeW]NYY(Me)II[hLys][dR]F[NMeY]C-NH2; lactam 2-11 (inferred); thioether N-15 (inferred))
- Kd (peptide vs hTfR): 1 to 100 nM

Compound: CC[C@H](C)[C@@H]1NC(=O)[C@H](Cc2ccc(O)cc2)NC(=O)[C@H](Cc2ccc(O)cc2)NC(=O)[C@H](CC(N)=O)NC(=O)[C@H](Cc2cn(CC(=O)O)c3ccccc23)NC(=O)[C@H](C(C)C)NC(=O)[C@H](Cc2cccc(Cl)c2)N(C)C(=O)[C@@H]2CCCC(=O)NCCCCC[C@H](NC(=O)[C@H]([C@@H](C)CC)NC1=O)C(=O)N[C@H](CCCNC(=N)N)C(=O)N[C@@H](Cc1ccccc1)C(=O)N(C)[C@@H](Cc1ccc(O)cc1)C(=O)N[C@H](C(N)=O)CSCC(=O)N[C@@H](C)C(=O)N2 [compound 419] ({CH2CO}-A[Aad][NMePhe(3-Cl)]V[Trp(1-CH2COOH)]NYYII[hLys][dR]F[NMeY]C-NH2; lactam 2-11; thioether N-15)
- Kd (peptide vs hTfR): 1 to 100 nM

Compound: CC[C@H](C)[C@@H]1NC(=O)[C@H](Cc2ccc(O)cc2)NC(=O)[C@H](Cc2ccc(O)cc2)NC(=O)[C@H](CC(N)=O)NC(=O)[C@H](Cc2c[nH]c3ccccc23)NC(=O)[C@H](C(C)C)NC(=O)[C@H](Cc2ccccc2)N(C)C(=O)[C@H](C(C)C)NC(=O)[C@H](C)NC(=O)CSC[C@@H](C(=O)NCCOCCOCCOCCOCCOCCOCCOCCOCCOCCOCCOCCOCCC(N)=O)NC(=O)[C@H](Cc2ccc(O)cc2)N(C)C(=O)[C@H](Cc2ccc(O)cc2)NC(=O)[C@H](CCCNC(=N)N)NC(=O)[C@H](CCCNC(=N)N)NC(=O)[C@H]([C@@H](C)CC)NC1=O [compound 420]
- Kd (peptide vs hTfR): 1 to 100 nM

Compound: CC[C@H](C)[C@@H]1NC(=O)[C@H](Cc2ccc(O)cc2)NC(=O)[C@H](Cc2ccc(O)cc2)NC(=O)[C@H](CC(N)=O)NC(=O)[C@H](Cc2c[nH]c3ccccc23)NC(=O)[C@H](C(C)C)NC(=O)[C@H](Cc2ccccc2)N(C)C(=O)[C@H](C(C)C)NC(=O)[C@H](C)NC(=O)CSC[C@@H](C(=O)NCC(=O)O)NC(=O)[C@H](Cc2ccc(O)cc2)N(C)C(=O)[C@H](Cc2ccc(O)cc2)NC(=O)[C@H](CCCNC(=N)N)NC(=O)[C@H](CCCNC(=N)N)NC(=O)[C@H]([C@@H](C)CC)NC1=O [compound 421]
- Kd (peptide vs hTfR): 1 to 100 nM

Compound: CC[C@H](C)[C@@H]1NC(=O)[C@H](Cc2ccc(O)cc2)NC(=O)[C@H](Cc2ccc(O)cc2)NC(=O)[C@H](CC(N)=O)NC(=O)[C@H](Cc2c[nH]c3ccccc23)NC(=O)[C@H](C(C)C)NC(=O)[C@H](Cc2ccccc2)N(C)C(=O)[C@H](C(C)C)NC(=O)[C@H](C)NC(=O)CSC[C@@H](C(=O)NCC(=O)N[C@H](CCC(=O)O)C(=O)N[C@H](CCC(=O)O)C(=O)N[C@H](CCC(=O)O)C(=O)N[C@@H](CO)C(=O)N[C@@H](CO)C(=O)N[C@@H](CSCC(=O)NC)C(N)=O)NC(=O)[C@H](Cc2ccc(O)cc2)N(C)C(=O)[C@H](Cc2ccc(O)cc2)NC(=O)[C@H](CCCNC(=N)N)NC(=O)[C@H](CCCNC(=N)N)NC(=O)[C@H]([C@@H](C)CC)NC1=O [compound 424]
- Kd (peptide vs hTfR): 1 to 100 nM

Compound: CC[C@H](C)[C@@H]1NC(=O)[C@H](Cc2ccc(O)cc2)NC(=O)[C@H](Cc2ccc(O)cc2)NC(=O)[C@H](CC(N)=O)NC(=O)[C@H](Cc2c[nH]c3ccccc23)NC(=O)[C@H](C(C)C)NC(=O)[C@H](Cc2ccccc2)N(C)C(=O)[C@H](C(C)C)NC(=O)[C@H](C)NC(=O)CSC[C@@H](C(=O)NCC(=O)N[C@H](CCC(=O)O)C(=O)N[C@H](CCC(=O)O)C(=O)NCC(=O)N[C@@H](CO)C(=O)N[C@@H](CO)C(=O)N[C@@H](CSCC(=O)NC)C(N)=O)NC(=O)[C@H](Cc2ccc(O)cc2)N(C)C(=O)[C@H](Cc2ccc(O)cc2)NC(=O)[C@H](CCCNC(=N)N)NC(=O)[C@H](CCCNC(=N)N)NC(=O)[C@H]([C@@H](C)CC)NC1=O [compound 425]
- Kd (peptide vs hTfR): 1 to 100 nM
